Assay results published in patent US8802700B2 (Vertex Pharmaceuticals Incorporated, priority 2010, dated 2014).
pEC50: −log10 of the molar value.

Molecular target: T1, ΔF508-CFTR (Homo sapiens, UniProt P13569, DEL508-508)
T1 construct: expressed in transfected cells
Test: Membrane potential optical assay (FRET voltage-sensor dyes, VIPR), identification of potentiator compounds
Format: cell-based
Conditions: Table 3, assay not given; for Emax: read-out: % Activity (% Efficacy, relative efficacy)
In short: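 NIH3T3 mouse fibroblasts stably expressing ΔF508-CFTR, cultured 24 h at 27 °C, were loaded with FRET voltage dyes CC2-DMPE and DiSBAC2(3). Double-addition format: first addition of Cl⁻-free (gluconate) medium with or without compound; membrane-potential change read as fluorescence on VIPR II.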

T1 sequence (P13569 with tags, fused parts or gaps DEL508-508): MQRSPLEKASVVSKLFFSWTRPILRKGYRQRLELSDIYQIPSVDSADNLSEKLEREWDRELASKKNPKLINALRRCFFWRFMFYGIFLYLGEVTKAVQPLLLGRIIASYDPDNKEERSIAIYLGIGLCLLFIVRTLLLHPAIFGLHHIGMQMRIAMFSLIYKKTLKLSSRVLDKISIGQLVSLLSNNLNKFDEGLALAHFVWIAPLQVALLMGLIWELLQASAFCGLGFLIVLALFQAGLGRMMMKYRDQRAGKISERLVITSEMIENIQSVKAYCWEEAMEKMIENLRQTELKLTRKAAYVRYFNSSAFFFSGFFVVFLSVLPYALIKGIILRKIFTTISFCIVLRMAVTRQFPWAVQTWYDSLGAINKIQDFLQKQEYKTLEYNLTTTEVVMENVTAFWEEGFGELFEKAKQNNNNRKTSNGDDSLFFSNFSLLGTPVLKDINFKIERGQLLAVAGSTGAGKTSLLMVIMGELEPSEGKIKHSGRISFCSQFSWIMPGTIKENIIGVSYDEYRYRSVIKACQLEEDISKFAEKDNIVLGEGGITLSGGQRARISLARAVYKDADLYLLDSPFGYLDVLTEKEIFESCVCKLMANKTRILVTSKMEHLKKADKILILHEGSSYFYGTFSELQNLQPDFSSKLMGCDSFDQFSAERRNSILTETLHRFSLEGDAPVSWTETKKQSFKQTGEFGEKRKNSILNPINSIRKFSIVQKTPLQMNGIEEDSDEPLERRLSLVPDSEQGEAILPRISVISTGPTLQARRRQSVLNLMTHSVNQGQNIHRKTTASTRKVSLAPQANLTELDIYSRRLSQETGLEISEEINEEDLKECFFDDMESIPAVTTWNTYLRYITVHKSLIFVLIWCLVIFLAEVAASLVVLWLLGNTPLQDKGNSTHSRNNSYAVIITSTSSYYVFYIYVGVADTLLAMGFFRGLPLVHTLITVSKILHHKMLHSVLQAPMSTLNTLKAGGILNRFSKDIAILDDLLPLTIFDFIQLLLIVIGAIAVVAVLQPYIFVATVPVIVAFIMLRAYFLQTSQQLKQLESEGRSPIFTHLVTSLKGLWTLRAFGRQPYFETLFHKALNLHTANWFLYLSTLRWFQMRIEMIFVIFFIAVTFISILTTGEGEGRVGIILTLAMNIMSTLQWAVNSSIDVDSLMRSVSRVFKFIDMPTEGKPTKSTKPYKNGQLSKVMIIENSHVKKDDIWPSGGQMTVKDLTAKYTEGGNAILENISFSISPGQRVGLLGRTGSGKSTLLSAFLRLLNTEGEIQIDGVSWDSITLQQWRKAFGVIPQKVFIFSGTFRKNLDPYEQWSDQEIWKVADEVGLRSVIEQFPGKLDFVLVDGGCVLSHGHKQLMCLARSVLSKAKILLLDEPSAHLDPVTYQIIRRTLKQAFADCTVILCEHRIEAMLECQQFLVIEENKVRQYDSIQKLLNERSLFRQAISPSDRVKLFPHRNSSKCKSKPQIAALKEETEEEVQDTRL

| SMILES | Emax | pEC50 |
| --- | --- | --- |
| CCC1(c2ccc(NC(=O)c3c[nH]c4ccccc4c3=O)cc2)CCC(=O)NC1=O (stereo not shown) [Compound 57, N-[4-(3-ethyl-2,6-dioxo-3-piperidyl)phenyl]-4-oxo-1H-quinoline-3-carboxamide] | > 100% | – |
| O=C(Nc1ccc2cc[nH]c2c1)c1c[nH]c2ccccc2c1=O [Compound 33, N-(1H-indol-6-yl)-4-oxo-1H-quinoline-3-carboxamide] | 25 to 100% | – |
| Cn1cnnc1-c1ccc(NC(=O)c2c[nH]c3ccccc3c2=O)cc1 [Compound 301, N-[4-(4-methyl-4H-1,2,4-triazol-3-yl)phenyl]-4-oxo-1H-quinoline-3-carboxamide] | < 25% | – |
| CCc1ccc(NC(=O)c2c[nH]c3ccccc3c2=O)cc1 [Compound 463, N-(4-ethylphenyl)-4-oxo-1H-quinoline-3-carboxamide] | 25 to 100% | > 5.00 |
| CCc1cc2cc[nH]c2cc1NC(=O)c1c[nH]c2cccc(O)c2c1=O [Compound 591, N-(5-ethyl-1H-indol-6-yl)-5-hydroxy-4-oxo-1H-quinoline-3-carboxamide] | 25 to 100% | – |
| COc1ccc2[nH]cc(C(=O)Nc3cc(O)c(C4(C)CCCCC4)cc3F)c(=O)c2c1 [Compound 584, N-[2-fluoro-5-hydroxy-4-(1-methylcyclohexyl)-phenyl]-6-methoxy-4-oxo-1H-quinoline-3-carboxamide] | 25 to 100% | – |
| CCOc1ccc(OCC)c(NC(=O)c2c[nH]c3ccccc3c2=O)c1 [Compound 264, N-(2,5-diethoxyphenyl)-4-oxo-1H-quinoline-3-carboxamide] | 25 to 100% | – |
| CC1(C)CCN(c2ccc(NC(=O)c3c[nH]c4ccccc4c3=O)c(C(F)(F)F)c2)C1 [Compound 536, N-[4-(3,3-dimethylpyrrolidin-1-yl)-2-(trifluoromethyl)phenyl]-4-oxo-1H-quinoline-3-carboxamide] | 25 to 100% | – |

More lines, now with the values ahead:

| Emax | pEC50 | SMILES |
| --- | --- | --- |
| 25 to 100% | – | COC(=O)c1cccc(-c2cc(C(C)(C)C)c(O)cc2NC(=O)c2c[nH]c3ccccc3c2=O)c1 [Compound 231, 3-[4-hydroxy-2-[(4-oxo-1H-quinolin-3-yl)carbonylamino]-5-tert-butyl-phenyl]benzoic acid methyl ester] |
| 25 to 100% | – | Cc1csc(-c2ccccc2NC(=O)c2c[nH]c3ccccc3c2=O)c1 [Compound 151, N-[2-(4-methyl-2-thienyl)phenyl]-4-oxo-1H-quinoline-3-carboxamide] |
| 25 to 100% | > 5.00 | CSc1ccccc1-c1ccccc1NC(=O)c1c[nH]c2ccccc2c1=O [Compound 279, N-[2-(2-methylsulfanylphenyl)phenyl]-4-oxo-1H-quinoline-3-carboxamide] |
| 25 to 100% | – | O=C(Nc1ccc(OC(F)(F)F)cc1Cl)c1c[nH]c2ccccc2c1=O [Compound 628, N-[2-chloro-4-(trifluoromethoxy)phenyl]-4-oxo-1H-quinoline-3-carboxamide] |
| 25 to 100% | – | CC(C)(C)c1cc(C(C)(C)C)c(NC(=O)c2c[nH]c3cc(F)c(F)cc3c2=O)cc1O [Compound 672, 6,7-difluoro-N-(5-hydroxy-2,4-ditert-butyl-phenyl)-4-oxo-1H-quinoline-3-carboxamide] |
| 25 to 100% | – | O=C(Nc1cccc(Cl)c1)c1c[nH]c2ccccc2c1=O [Compound 370, N-(3-chlorophenyl)-4-oxo-1H-quinoline-3-carboxamide] |
| 25 to 100% | – | CCc1cccc(CC)c1NC(=O)c1c[nH]c2ccccc2c1=O [Compound 325, N-(2,6-diethylphenyl)-4-oxo-1H-quinoline-3-carboxamide] |
| 25 to 100% | – | CC(=O)Nc1cc(NC(=O)c2c[nH]c3ccccc3c2=O)ccc1C [Compound 248, N-(3-Acetylamino-4-methyl-phenyl)-4-oxo-1H-quinoline-3-carboxamide] |
| 25 to 100% | – | COc1ccc(Cl)cc1-c1ccccc1NC(=O)c1c[nH]c2ccccc2c1=O [Compound 202, N-[2-(5-chloro-2-methoxy-phenyl)phenyl]-4-oxo-1H-quinoline-3-carboxamide] |
